O=C(NNC(=S)Nc1ccc(Cl)cc1)c1ccncc1
solubility (mole fraction)
Settings | 298.15 K | 308.15 K | 318.15 K | 328.15 K | 338.15 K
in transcutol | 0.0423 | 0.0468 | 0.0514 | 0.0565 | 0.0607
in water | 5.17e-07 | 5.93e-07 | 7.05e-07 | 8.28e-07 | 9.75e-07

Source: BigSolDB 2.1
